# Results: the kinase profiling compilation of Christmann-Franck et al. (2016)
# Values joined by “and” are separate entries in the source; they are usually repeats but may differ in a detail not shown here. Identical values can stand only once.
# Legend:
# Test in all cases: radiometric filter-binding kinase assay, Kinase HotSpot
# [1] = biological target: ADRBK2 (human) (UniProt P35626); conditions: compound 0.5 µM; ATP 10 µM
# [2] = biological target: AKT3 (human) (UniProt Q9Y243); conditions: compound 0.5 µM; ATP 10 µM
# [3] = biological target: CAMK1 (human) (UniProt Q14012); conditions: compound 0.5 µM; ATP 10 µM
# [4] = biological target: CAMK2A (human) (UniProt Q9UQM7); conditions: compound 0.5 µM; ATP 10 µM
# [5] = biological target: CDK6 CCND1 (human) (UniProt Q00534+P24385); conditions: compound 0.5 µM
# [6] = biological target: CLK2 (human) (UniProt P49760); conditions: compound 0.5 µM; ATP 10 µM
# [7] = biological target: CSNK1E (human) (UniProt P49674); conditions: compound 0.5 µM; ATP 10 µM
# [8] = biological target: DCLK2 (human) (UniProt Q8N568); conditions: compound 0.5 µM; ATP 10 µM
# [9] = biological target: DSTYK (human) (UniProt Q6XUX3); conditions: compound 0.5 µM; ATP 10 µM
# [10] = biological target: EPHA1 (human) (UniProt P21709); conditions: compound 0.5 µM; ATP 10 µM
# [11] = biological target: GSG2 (human) (UniProt Q8TF76); conditions: compound 0.5 µM; ATP 10 µM
# [12] = biological target: INSR (human) (UniProt P06213); conditions: compound 0.5 µM; ATP 10 µM
# [13] = biological target: IRAK4 (human) (UniProt Q9NWZ3); conditions: compound 0.5 µM; ATP 10 µM
# [14] = biological target: LTK (human) (UniProt P29376); conditions: compound 0.5 µM; ATP 10 µM
# [15] = biological target: LYN (human) (UniProt P07948); conditions: compound 0.5 µM; ATP 10 µM
# Sequence of LYN (human) (P07948 whole entry, looked up): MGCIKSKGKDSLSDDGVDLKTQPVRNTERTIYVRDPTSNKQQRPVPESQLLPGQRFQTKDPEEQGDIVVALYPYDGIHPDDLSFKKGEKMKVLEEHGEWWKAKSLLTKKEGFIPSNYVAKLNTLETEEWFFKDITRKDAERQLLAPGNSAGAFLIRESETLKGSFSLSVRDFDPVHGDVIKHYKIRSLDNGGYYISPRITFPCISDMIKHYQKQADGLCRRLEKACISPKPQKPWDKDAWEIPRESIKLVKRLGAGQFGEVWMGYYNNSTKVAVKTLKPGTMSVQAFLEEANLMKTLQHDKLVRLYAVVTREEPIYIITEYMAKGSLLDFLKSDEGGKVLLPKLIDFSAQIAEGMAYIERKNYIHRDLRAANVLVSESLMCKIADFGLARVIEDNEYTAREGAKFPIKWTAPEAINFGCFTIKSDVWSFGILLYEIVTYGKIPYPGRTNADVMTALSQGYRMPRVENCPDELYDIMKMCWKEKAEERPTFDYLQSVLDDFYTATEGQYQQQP
# [16] = biological target: MAP3K3 (human) (UniProt Q99759); conditions: compound 0.5 µM; ATP 10 µM
# [17] = biological target: MAP3K7 TAB1 (human) (UniProt O43318+Q15750); conditions: compound 0.5 µM; ATP 10 µM
# [18] = biological target: MAP4K2 (human) (UniProt Q12851); conditions: compound 0.5 µM; ATP 10 µM
# [19] = biological target: MAPK10 (human) (UniProt P53779); conditions: compound 0.5 µM; ATP 10 µM
# [20] = biological target: MAPK9 (human) (UniProt P45984); conditions: compound 0.5 µM; ATP 10 µM
# [21] = biological target: MAPKAPK2 (human) (UniProt P49137); conditions: compound 0.5 µM; ATP 10 µM
# [22] = biological target: MELK (human) (UniProt Q14680); conditions: compound 0.5 µM; ATP 10 µM
# [23] = biological target: MUSK (human) (UniProt O15146); conditions: compound 0.5 µM; ATP 10 µM
# [24] = biological target: MYLK (human) (UniProt Q15746); conditions: compound 0.5 µM
# Sequence of MYLK (human) (Q15746 whole entry, looked up): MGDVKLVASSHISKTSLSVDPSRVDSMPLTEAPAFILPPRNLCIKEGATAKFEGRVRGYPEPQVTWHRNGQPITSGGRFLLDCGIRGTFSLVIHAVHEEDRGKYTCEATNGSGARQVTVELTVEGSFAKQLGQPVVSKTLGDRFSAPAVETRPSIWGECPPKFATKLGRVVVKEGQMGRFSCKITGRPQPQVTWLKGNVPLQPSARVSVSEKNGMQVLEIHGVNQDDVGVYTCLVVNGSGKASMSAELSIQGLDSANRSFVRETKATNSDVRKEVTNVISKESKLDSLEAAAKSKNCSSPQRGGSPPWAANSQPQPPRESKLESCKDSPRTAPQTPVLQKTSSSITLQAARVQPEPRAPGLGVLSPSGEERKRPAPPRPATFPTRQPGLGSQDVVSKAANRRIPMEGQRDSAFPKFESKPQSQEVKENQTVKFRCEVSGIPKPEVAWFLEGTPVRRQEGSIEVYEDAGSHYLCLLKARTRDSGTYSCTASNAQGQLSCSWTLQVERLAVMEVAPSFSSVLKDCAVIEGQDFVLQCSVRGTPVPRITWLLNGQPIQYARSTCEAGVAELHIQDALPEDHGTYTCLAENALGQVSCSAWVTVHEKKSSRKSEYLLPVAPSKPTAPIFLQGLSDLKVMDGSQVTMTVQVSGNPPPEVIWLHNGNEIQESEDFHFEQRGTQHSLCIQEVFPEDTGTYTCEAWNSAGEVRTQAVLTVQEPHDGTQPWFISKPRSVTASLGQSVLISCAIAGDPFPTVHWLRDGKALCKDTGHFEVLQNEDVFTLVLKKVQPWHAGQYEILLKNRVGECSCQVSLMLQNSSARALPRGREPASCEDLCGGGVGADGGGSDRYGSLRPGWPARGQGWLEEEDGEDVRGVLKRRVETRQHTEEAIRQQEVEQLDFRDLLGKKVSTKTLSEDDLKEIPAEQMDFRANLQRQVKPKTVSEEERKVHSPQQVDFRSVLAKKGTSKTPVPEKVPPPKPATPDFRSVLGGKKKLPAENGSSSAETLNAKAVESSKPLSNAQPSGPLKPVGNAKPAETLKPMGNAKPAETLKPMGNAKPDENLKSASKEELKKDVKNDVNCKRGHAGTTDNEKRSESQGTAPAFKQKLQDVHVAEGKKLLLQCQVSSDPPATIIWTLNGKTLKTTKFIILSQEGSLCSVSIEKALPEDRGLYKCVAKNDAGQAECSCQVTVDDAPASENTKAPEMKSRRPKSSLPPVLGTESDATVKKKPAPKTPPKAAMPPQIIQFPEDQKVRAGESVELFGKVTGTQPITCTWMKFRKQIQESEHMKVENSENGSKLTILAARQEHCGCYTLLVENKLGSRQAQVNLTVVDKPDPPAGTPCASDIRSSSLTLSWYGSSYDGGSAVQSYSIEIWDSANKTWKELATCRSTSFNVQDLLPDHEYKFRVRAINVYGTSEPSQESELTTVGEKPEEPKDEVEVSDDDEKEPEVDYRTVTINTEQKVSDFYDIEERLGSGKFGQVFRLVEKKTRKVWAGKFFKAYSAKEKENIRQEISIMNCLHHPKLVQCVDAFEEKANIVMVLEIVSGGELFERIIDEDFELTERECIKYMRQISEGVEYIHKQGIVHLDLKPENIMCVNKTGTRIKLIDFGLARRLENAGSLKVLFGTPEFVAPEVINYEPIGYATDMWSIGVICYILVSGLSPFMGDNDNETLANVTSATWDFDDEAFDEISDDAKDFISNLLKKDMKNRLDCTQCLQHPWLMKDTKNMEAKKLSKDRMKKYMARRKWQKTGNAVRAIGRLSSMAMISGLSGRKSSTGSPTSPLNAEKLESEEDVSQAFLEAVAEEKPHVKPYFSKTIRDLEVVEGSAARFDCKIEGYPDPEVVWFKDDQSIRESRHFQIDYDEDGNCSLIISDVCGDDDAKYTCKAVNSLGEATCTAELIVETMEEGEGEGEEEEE
# [25] = biological target: NEK3 (human) (UniProt P51956); conditions: compound 0.5 µM; ATP 10 µM
# [26] = biological target: NEK4 (human) (UniProt P51957); conditions: compound 0.5 µM; ATP 10 µM
# Sequence of NEK4 (human) (P51957 whole entry, looked up): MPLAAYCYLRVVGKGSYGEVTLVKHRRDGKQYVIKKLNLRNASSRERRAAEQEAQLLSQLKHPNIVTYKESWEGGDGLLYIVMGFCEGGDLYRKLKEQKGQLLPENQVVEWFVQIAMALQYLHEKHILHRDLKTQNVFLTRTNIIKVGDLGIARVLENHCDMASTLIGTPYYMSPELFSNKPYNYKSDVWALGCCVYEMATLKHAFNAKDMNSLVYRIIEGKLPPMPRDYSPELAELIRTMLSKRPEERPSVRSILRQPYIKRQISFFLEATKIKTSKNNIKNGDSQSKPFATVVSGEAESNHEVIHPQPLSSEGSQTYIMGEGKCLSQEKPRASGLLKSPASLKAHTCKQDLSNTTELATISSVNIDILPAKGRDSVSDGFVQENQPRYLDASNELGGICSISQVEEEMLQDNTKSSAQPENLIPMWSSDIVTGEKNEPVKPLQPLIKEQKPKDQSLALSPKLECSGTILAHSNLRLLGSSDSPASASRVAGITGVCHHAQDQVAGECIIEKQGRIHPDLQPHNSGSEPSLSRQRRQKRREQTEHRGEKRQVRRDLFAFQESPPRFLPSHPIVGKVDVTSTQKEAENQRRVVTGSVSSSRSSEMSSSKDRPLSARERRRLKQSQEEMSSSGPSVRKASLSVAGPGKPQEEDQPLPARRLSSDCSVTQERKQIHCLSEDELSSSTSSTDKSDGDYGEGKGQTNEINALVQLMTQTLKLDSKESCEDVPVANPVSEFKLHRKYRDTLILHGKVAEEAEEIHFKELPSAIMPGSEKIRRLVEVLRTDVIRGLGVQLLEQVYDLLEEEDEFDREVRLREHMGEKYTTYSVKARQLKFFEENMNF
# [27] = biological target: PAK1 (human) (UniProt Q13153); conditions: compound 0.5 µM; ATP 10 µM
# [28] = biological target: PAK3 (human) (UniProt O75914); conditions: compound 0.5 µM; ATP 10 µM
# Sequence of PAK3 (human) (O75914 whole entry, looked up): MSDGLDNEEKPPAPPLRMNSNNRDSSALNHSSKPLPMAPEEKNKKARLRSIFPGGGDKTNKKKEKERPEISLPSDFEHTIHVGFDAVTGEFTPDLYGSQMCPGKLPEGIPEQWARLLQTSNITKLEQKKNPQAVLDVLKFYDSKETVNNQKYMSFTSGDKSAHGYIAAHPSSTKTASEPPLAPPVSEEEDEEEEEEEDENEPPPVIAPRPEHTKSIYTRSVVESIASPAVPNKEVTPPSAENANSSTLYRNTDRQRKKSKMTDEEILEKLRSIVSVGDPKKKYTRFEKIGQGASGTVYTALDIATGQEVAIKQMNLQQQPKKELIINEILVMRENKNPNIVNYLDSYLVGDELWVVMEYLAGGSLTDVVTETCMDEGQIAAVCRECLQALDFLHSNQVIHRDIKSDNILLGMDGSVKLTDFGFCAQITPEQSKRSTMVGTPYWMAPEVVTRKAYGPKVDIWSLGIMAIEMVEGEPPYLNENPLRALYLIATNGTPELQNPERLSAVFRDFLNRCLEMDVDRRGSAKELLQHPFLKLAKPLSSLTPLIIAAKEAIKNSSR
# [29] = biological target: PAK4 (human) (UniProt O96013); conditions: compound 0.5 µM; ATP 10 µM
# [30] = biological target: PBK (human) (UniProt Q96KB5); conditions: compound 0.5 µM; ATP 10 µM
# [31] = biological target: PRKD3 (human) (UniProt O94806); conditions: compound 0.5 µM; ATP 10 µM
# [32] = biological target: PRKX (human) (UniProt P51817); conditions: compound 0.5 µM; ATP 10 µM
# [33] = biological target: RET (human) (UniProt P07949); conditions: compound 0.5 µM; ATP 10 µM
# [34] = test system: SGK1 (human), O00141 [S422D]; conditions: compound 0.5 µM; ATP 10 µM
# [35] = biological target: SRC (human) (UniProt P12931); conditions: compound 0.5 µM; ATP 10 µM
# [36] = biological target: STK24 (human) (UniProt Q9Y6E0); conditions: compound 0.5 µM; ATP 10 µM
# [37] = biological target: STK33 (human) (UniProt Q9BYT3); conditions: compound 0.5 µM; ATP 10 µM
# [38] = biological target: SYK (human) (UniProt P43405); conditions: compound 0.5 µM; ATP 10 µM
# [39] = biological target: TAOK2 (human) (UniProt Q9UL54); conditions: compound 0.5 µM; ATP 10 µM
# [40] = biological target: TGFBR1 (human) (UniProt P36897); conditions: compound 0.5 µM; ATP 10 µM
# [41] = biological target: TGFBR2 (human) (UniProt P37173); conditions: compound 0.5 µM; ATP 10 µM
# [42] = biological target: TNK2 (human) (UniProt Q07912); conditions: compound 0.5 µM; ATP 10 µM
# Sequence of TNK2 (human) (Q07912 whole entry, looked up): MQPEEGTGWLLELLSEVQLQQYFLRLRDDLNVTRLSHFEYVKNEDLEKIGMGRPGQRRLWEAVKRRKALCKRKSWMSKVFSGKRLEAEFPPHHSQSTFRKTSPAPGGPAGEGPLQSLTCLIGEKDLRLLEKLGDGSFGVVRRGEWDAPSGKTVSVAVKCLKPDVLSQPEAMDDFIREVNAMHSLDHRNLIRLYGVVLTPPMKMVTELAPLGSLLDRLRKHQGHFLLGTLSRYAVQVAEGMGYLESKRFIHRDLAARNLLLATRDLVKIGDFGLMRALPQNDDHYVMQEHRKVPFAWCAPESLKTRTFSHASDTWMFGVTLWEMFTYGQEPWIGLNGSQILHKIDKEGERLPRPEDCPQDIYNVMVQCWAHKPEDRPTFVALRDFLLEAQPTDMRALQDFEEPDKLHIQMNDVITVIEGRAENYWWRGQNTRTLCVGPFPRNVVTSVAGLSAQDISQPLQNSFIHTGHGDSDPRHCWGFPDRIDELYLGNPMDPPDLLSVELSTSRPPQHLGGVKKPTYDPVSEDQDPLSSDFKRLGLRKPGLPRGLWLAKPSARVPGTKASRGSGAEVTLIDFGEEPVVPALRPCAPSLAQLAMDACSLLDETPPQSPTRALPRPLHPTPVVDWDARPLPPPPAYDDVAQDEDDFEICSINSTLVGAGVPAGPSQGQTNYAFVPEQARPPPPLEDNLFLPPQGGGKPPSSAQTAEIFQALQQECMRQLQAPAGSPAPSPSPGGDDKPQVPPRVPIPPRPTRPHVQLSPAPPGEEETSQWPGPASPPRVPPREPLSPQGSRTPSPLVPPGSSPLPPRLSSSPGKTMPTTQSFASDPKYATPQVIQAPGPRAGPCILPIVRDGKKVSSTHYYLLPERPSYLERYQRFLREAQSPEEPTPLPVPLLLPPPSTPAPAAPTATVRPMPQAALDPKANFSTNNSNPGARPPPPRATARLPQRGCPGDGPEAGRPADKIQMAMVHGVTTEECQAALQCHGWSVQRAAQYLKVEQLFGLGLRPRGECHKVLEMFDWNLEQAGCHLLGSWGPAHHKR
smiles,measurement,setting,value
O=c1[nH]c2ccccc2n1C1CCN(Cc2ccc(-c3nc4cc5[nH]cnc5cc4nc3-c3ccccc3)cc2)CC1,residual activity,[1],87.3%
same,residual activity,[2],103%
same,residual activity,[3],95.1%
same,residual activity,[4],109%
same,residual activity,[5],105%
same,residual activity,[6],114%
same,residual activity,[7],107%
same,residual activity,[8],107%
same,residual activity,[9],104%
same,residual activity,[10],84.4%
same,residual activity,[11],106%
same,residual activity,[12],102%
same,residual activity,[13],201%
same,residual activity,[14],95.6%
same,residual activity,[15],102% and 116%
same,residual activity,[16],101%
same,residual activity,[17],84.1%
same,residual activity,[18],105%
same,residual activity,[19],96%
same,residual activity,[20],91.9%
same,residual activity,[21],98.7%
same,residual activity,[22],110%
same,residual activity,[23],96.8%
same,residual activity,[24],104%
same,residual activity,[25],97.2%
same,residual activity,[26],106%
same,residual activity,[27],90.6%
same,residual activity,[28],104%
same,residual activity,[29],102%
same,residual activity,[30],103%
same,residual activity,[31],99.5%
same,residual activity,[32],101%
same,residual activity,[33],96.7%
same,residual activity,[34],102%
same,residual activity,[35],103%
same,residual activity,[36],90.7%
same,residual activity,[37],89.6%
same,residual activity,[38],97.9%
same,residual activity,[39],98.8%
same,residual activity,[40],102%
same,residual activity,[41],95.5%
same,residual activity,[42],92.3%
O=C1NC(=O)c2cc(Nc3ccc(F)cc3)c(Nc3ccc(F)cc3)cc21,residual activity,[1],104%
same,residual activity,[2],100%
same,residual activity,[3],104%
same,residual activity,[4],103%
same,residual activity,[5]; ATP 10 µM,99%
same,residual activity,[6],88.1%
same,residual activity,[7],98%
same,residual activity,[8],100%
same,residual activity,[9],95.6%
same,residual activity,[10],97.4%
same,residual activity,[11],95.1%
same,residual activity,[12],98.3%
same,residual activity,[13],98.1%
same,residual activity,[14],99.7%
same,residual activity,[15],97.8% and 98.7%
same,residual activity,[16],102%
same,residual activity,[17],98.8%
same,residual activity,[18],98.2%
same,residual activity,[19],97.3%
same,residual activity,[20],61.4%
same,residual activity,[21],95.7%
same,residual activity,[22],92%
same,residual activity,[23],90.2%
same,residual activity,[24]; ATP 10 µM,100%
same,residual activity,[25],99.1%
same,residual activity,[26],107%
same,residual activity,[27],95.5%
same,residual activity,[28],99.4%
same,residual activity,[29],95.1%
same,residual activity,[30],88.4%
same,residual activity,[31],96.7%
same,residual activity,[32],103%
same,residual activity,[33],104%
same,residual activity,[34],103%
same,residual activity,[35],101%
same,residual activity,[36],93.7%
same,residual activity,[37],99.3%
same,residual activity,[38],98.8%
same,residual activity,[39],94.7%
same,residual activity,[40],98.1%
same,residual activity,[41],85.2%
same,residual activity,[42],93.2%
